Source: ChEMBL document CHEMBL1201862, “PubChem BioAssay data set” (2004)
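Protocol summary: plate cells (96-well), add compound at 5 concentrations, incubate 48 h, interpolate endpoints linearly. GI50: concentration for 50% inhibition of growth.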 The source made the active and inactive calls. Cut-off read from the data, not from the text of the source: active = GI50 up to about 1.1 µM and inactive = higher.

Assays:
Test in all cases: NCI tumour cell line growth inhibition, 48 h
786-0 = tested on: 786-0
A498 = tested on: A498
A549 = tested on: A549
ACHN = tested on: ACHN
CAKI-1 = tested on: CAKI-1
CCRF-CEM = tested on: CCRF-CEM
COLO 205 = tested on: COLO 205
DLD-1 = tested on: DLD-1
DMS-114 = tested on: DMS-114
DMS-273 = tested on: DMS-273
EKVX = tested on: EKVX
HCC 2998 = tested on: HCC 2998
HCT-116 = tested on: HCT-116
HCT-15 = tested on: HCT-15
HL-60 = tested on: HL-60
HOP-18 = tested on: HOP-18
HOP-62 = tested on: HOP-62
HOP-92 = tested on: HOP-92
HT-29 = tested on: HT-29
IGROV-1 = tested on: IGROV-1
K562 = tested on: K562
KM-20L2 = tested on: KM-20L2
KM12 = tested on: KM12
LOX IMVI = tested on: LOX IMVI
LXFL 529 = tested on: LXFL 529
M14 = tested on: M14
M19-MEL = tested on: M19-MEL
MOLT-4 = tested on: MOLT-4
Malme-3M = tested on: Malme-3M
NCI-H226 = tested on: NCI-H226
NCI-H23 = tested on: NCI-H23
NCI-H460 = tested on: NCI-H460
NCI-H522 = tested on: NCI-H522
OVCAR-3 = tested on: OVCAR-3
OVCAR-4 = tested on: OVCAR-4
OVCAR-5 = tested on: OVCAR-5
OVCAR-8 = tested on: OVCAR-8
RPMI-8226 = tested on: RPMI-8226
RXF 393 = tested on: RXF 393
RXF 631 = tested on: RXF 631
SF-268 = tested on: SF-268
SF-295 = tested on: SF-295
SF-539 = tested on: SF-539
SK-MEL-28 = tested on: SK-MEL-28
SK-MEL-2 = tested on: SK-MEL-2
SK-MEL-5 = tested on: SK-MEL-5
SK-OV-3 = tested on: SK-OV-3
SN12C = tested on: SN12C
SNB-19 = tested on: SNB-19
SNB-75 = tested on: SNB-75
SNB-78 = tested on: SNB-78
SW-620 = tested on: SW-620
TK-10 = tested on: TK-10
U-251 = tested on: U-251
UACC-257 = tested on: UACC-257
UACC-62 = tested on: UACC-62
UO-31 = tested on: UO-31
XF498 = tested on: XF498

O=C(C(=O)n1ncc(Cl)c(Cl)c1=O)n1ncc(Cl)c(Cl)c1=O
GI50 (786-0): 19.5 µM (inactive)
GI50 (A498): > 100 µM (inactive)
GI50 (A549): 96.8 µM (inactive)
GI50 (ACHN): 16.9 µM (inactive)
GI50 (CAKI-1): 17.7 µM (inactive)
GI50 (CCRF-CEM): 6.85 µM (inactive)
GI50 (COLO 205): 13.9 µM (inactive)
GI50 (DLD-1): 16 µM (inactive)
GI50 (DMS-114): 27.4 µM (inactive)
GI50 (DMS-273): 17.9 µM (inactive)
GI50 (EKVX): 40.4 µM (inactive)
GI50 (HCC 2998): 23.3 µM (inactive)
GI50 (HCT-116): 15.8 µM (inactive)
GI50 (HCT-15): 17.5 µM
GI50 (HL-60): 5.82 µM (inactive)
GI50 (HOP-18): 31.8 µM (inactive)
GI50 (HOP-62): > 100 µM (inactive)
GI50 (HOP-92): 23.2 µM (inactive)
GI50 (HT-29): 18.2 µM (inactive)
GI50 (IGROV-1): 27.4 µM (inactive)
GI50 (K562): 20.3 µM (inactive)
GI50 (KM-20L2): 29.6 µM (inactive)
GI50 (KM12): 27.7 µM (inactive)
GI50 (LOX IMVI): 30.1 µM (inactive)
GI50 (LXFL 529): 14.6 µM (inactive)
GI50 (M14): 25.1 µM (inactive)
GI50 (M19-MEL): 20.4 µM (inactive)
GI50 (MOLT-4): 14.8 µM (inactive)
GI50 (Malme-3M): 19.7 µM (inactive)
GI50 (NCI-H226): > 100 µM (inactive)
GI50 (NCI-H23): 19.8 µM (inactive)
GI50 (NCI-H460): 45.7 µM (inactive)
GI50 (NCI-H522): 10.7 µM (inactive)
GI50 (OVCAR-3): 27.1 µM (inactive)
GI50 (OVCAR-4): 19.6 µM (inactive)
GI50 (OVCAR-5): > 100 µM (inactive)
GI50 (OVCAR-8): 23.1 µM (inactive)
GI50 (RPMI-8226): 4.18 µM (inactive)
GI50 (RXF 393): > 10 µM (inactive)
GI50 (RXF 631): 38 µM (inactive)
GI50 (SF-268): 42.4 µM (inactive)
GI50 (SF-295): 93.5 µM (inactive)
GI50 (SF-539): 28.8 µM (inactive)
GI50 (SK-MEL-28): 25.3 µM (inactive)
GI50 (SK-MEL-2): 23.3 µM (inactive)
GI50 (SK-MEL-5): 35.5 µM (inactive)
GI50 (SK-OV-3): > 53.8 µM (inactive)
GI50 (SN12C): 24.4 µM (inactive)
GI50 (SNB-19): > 100 µM (inactive)
GI50 (SNB-75): 40.8 µM (inactive)
GI50 (SNB-78): 28.6 µM (inactive)
GI50 (SW-620): 19.4 µM (inactive)
GI50 (TK-10): 27.4 µM (inactive)
GI50 (U-251): 35.7 µM (inactive)
GI50 (UACC-257): 19.5 µM (inactive)
GI50 (UACC-62): 15.1 µM (inactive)
GI50 (UO-31): 48.5 µM (inactive)
GI50 (XF498): 26.2 µM (inactive)
